Assays:
[1] = biological target: T1, human GPCR sphingosine 1-phosphate receptor 5 (S1PR5) (Homo sapiens, UniProt Q9H228); test: S1PR5 selectivity assay (Ca2+ flux, antagonist, S1PR5 specific agonist trigger); format: cell-based; settings: S1P5 antagonist EC50, CHO cells overexpressing human S1PR5 and Gq protein
T1 construct: host or cells: CHO
Method in brief: (§1)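 CHO cells stably overexpressing human S1PR1 or S1PR5 with Gq were preincubated with compound 15 min at 37 °C, then stimulated with S1P at EC80 (S1PR1) or an S1PR5-specific agonist (S1PR5). Ca2+ fluorescence was read for 3 min; 10-point 1/3 dilutions from 20 μM final, normalized to vehicle and EC80 trigger, gave EC50.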

HFL-1 cells [2] = test: IL8 assay in the presence of Human Serum Albumin; format: cell-based; settings: HFL1, S1P (5 μM) induced IL-8, HFL-1 cells, with 2% HSA, read-out: HSA IL8 EC50
Method in brief: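 Cells serum-starved with 1.95% HSA, pre-treated 1 h with compound (10-point 1/3 dilution from 30 μM, 0.3% DMSO), then stimulated with 5 μM S1P for 16 to 24 h at 37° C. Supernatant IL-8 measured by ELISA.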

HFL-1 cells [3] = test: IL8 assay (S1P induced IL-8 production); format: cell-based; settings: Homo sapiens, HFL1; S1P (1 μM) induced IL-8, HFL-1 cells, without HSA
Method in brief: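 Serum-starved human fetal lung fibroblasts were preincubated with compound for 1 h at 37° C (10-point, 1/3 dilution, top 30 μM, 0.3% DMSO). S1P at 1 μM final was then added for 16–24 h, and IL-8 in the supernatant was measured by ELISA.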

[4] = biological target: T2, human GPCR sphingosine 1-phosphate receptor 1 (S1PR1) (Homo sapiens, UniProt P21453); test: S1PR1 selectivity assay (Ca2+ flux, antagonist); format: cell-based; settings: S1P1 antagonist EC50, CHO cells overexpressing human S1PR1 and Gq protein
T2 construct: host or cells: CHO
Method in brief: as §1

S1PR2 = biological target: T3, S1PR2 (Homo sapiens, UniProt O95136); test: GTP-γS binding assay ([35S]GTPγS, S1P at EC80, S1PR2 membranes); format: biochemical; settings: membranes from stable cell line over expressing S1PR2, read-out: S1PR2 EC
T3 construct: expressed in transfected cells
Method in brief: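 Compounds tested against S1P at its EC80 on membranes (2.5 μg/well) from a stable S1PR2-overexpressing line, pre-incubated with 1 μM GDP 15 min at 4 °C. Buffer: 20 mM Tris pH 7.5, 10 mM MgCl2, 100 mM NaCl, 0.1% fatty-acid-free BSA, 50 ug/ml saponin. Incubated 4 h at room temperature; [35S]GTPγS binding read by WGA SPA beads.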

[5] = biological target: T4, human GPCR sphingosine 1-phosphate receptor 2 (S1PR2) (Homo sapiens, UniProt O95136); test: S1P2 antagonist assay (Ca2+ flux, S1P at EC80); format: cell-based; settings: CHO-S1PR2 cells, highest concentration 20 μM
T4 construct: host or cells: CHO
Method in brief: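 CHO cells stably overexpressing human S1PR2, serum-starved 1 h and loaded with Fluo8 dye, were read for 3 min after compound addition, then stimulated with S1P at EC80 after 15 min at 37 °C. Top concentration 20 μM in a 10-point 1/3 series; Ca2+ fluorescence ratio normalized to vehicle and S1P EC80, giving EC50.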

T2 sequence (P21453 whole entry): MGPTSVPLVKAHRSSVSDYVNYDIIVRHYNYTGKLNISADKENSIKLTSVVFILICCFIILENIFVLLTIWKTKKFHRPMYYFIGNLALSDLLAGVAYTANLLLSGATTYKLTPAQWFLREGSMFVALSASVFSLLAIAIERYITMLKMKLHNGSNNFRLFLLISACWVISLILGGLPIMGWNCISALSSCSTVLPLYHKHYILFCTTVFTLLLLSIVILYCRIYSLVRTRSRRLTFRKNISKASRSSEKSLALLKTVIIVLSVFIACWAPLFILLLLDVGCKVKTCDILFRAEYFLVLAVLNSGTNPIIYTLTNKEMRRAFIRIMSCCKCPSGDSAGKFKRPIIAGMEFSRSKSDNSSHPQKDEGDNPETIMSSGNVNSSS
T4 sequence (O95136 whole entry): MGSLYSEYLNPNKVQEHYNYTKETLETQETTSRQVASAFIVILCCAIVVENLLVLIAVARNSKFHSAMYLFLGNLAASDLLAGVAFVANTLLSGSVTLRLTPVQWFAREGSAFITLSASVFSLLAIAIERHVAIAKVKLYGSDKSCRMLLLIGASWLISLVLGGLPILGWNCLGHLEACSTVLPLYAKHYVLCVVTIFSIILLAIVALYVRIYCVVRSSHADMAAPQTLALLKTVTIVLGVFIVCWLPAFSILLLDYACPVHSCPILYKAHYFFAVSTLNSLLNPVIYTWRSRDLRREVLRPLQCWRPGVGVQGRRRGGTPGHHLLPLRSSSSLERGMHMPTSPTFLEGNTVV
T3 sequence (O95136 whole entry): as above
T1 sequence (Q9H228 whole entry): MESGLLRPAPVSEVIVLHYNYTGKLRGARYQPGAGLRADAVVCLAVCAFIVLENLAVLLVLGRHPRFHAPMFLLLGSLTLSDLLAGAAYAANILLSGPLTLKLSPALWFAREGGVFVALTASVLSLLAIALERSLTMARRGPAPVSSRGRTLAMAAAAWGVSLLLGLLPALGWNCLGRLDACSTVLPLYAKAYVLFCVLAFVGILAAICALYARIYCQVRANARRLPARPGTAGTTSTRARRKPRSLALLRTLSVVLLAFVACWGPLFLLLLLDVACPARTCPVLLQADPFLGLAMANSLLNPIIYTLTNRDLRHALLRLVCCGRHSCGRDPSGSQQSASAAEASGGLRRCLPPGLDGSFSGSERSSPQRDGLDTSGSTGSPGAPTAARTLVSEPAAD

Cc1cc(CNC(=O)Nc2cc(Cl)nc(OCC(F)F)c2)nnc1N1CCC(F)(CO)C1 (stereo not drawn) [Compound 90, 1-[2-chloro-6-(2,2-difluoroethoxy)-4-pyridyl]-3-[[6-[3-fluoro-3-(hydroxymethyl)pyrrolidin-1-yl]-5-methyl-pyridazin-3-yl]methyl]urea] showed an EC50 [1] of 2090 nM, an IC50 (HFL-1 cells [2]) of 30000 nM and an EC50 (HFL-1 cells [3]) of 244 nM. The EC50 [4] was 6610 nM, the EC50 (S1PR2) was 1170 nM and the EC50 [5] was 452 nM.
In the case of Cc1cc(CNC(=O)Nc2cc(Cl)nc(OCC(F)F)c2)nnc1N1CCC(S(C)(=O)=O)C1 (stereo not drawn) [Compound 91, 1-[2-chloro-6-(2,2-difluoroethoxy)-4-pyridyl]-3-[[5-methyl-6-(3-methylsulfonyl-pyrrolidin-1-yl)pyridazin-3-yl]methyl]urea], the EC50 [1] is reported as at least 19800 nM, the IC50 (HFL-1 cells [2]) is reported as 2840 nM and the EC50 (HFL-1 cells [3]) is reported as 1250 nM. The EC50 [4] was at least 19800 nM, the EC50 (S1PR2) was 919 nM and the EC50 [5] was 529 nM.
For Cc1cc(CNC(=O)Nc2cc(Cl)nc(OCC(F)F)c2)nnc1N1CC(S(C)(=O)=O)C1 [Compound 92, 1-[2-chloro-6-(2,2-difluoroethoxy)-4-pyridyl]-3-[[5-methyl-6-(3-methylsulfonyl-azetidin-1-yl)pyridazin-3-yl]methyl]urea], the EC50 [1] was at least 19800 nM, the IC50 (HFL-1 cells [2]) was 10000 nM and the EC50 (HFL-1 cells [3]) was 432 nM. The EC50 [4] was at least 19800 nM, the EC50 (S1PR2) was 469 nM and the EC50 [5] was 188 nM.
CCOc1cc(NC(=O)NCc2cc(C)c(N3CCCc4nn(C)cc43)nn2)cc(C(F)(F)F)n1 [Compound 96, 1-[2-ethoxy-6-(trifluoromethyl)-4-pyridyl]-3-[[5-methyl-6-(2-methyl-6,7-dihydro-5H-pyrazolo[4,3-b]pyridin-4-yl)pyridazin-3-yl]methyl]urea] gave an EC50 [1] of 627 nM, an IC50 (HFL-1 cells [2]) of 2270 nM and an EC50 (HFL-1 cells [3]) of 44 nM. For the same compound, the EC50 [4] was 6610 nM, the EC50 (S1PR2) was 302 nM and the EC50 [5] was 33 nM.
